From US6821985B2, “Pharmaceutical combinations for the treatment of stroke and traumatic brain injury” (Pfizer, Inc., priority 2000, dated 2004)

Assays:
α1-adrenergic receptor = assay: Displacement of specific binding of [3H]prazosin from rat forebrain membranes; conditions: IC50 for displacement of specific binding, 0.2 nM radioligand
Description: Compounds of the formula I have selectivity for NR^2B subunit-containing NMDA receptors over α1-adrengergic receptors. Affinity for the NR^2B subunit containing NMDA receptor is measured as the IC50 for displacement of specific binding of racemic [^3H] (+)-(1S, 2S)-1-(4-hydroxy-phenyl)-2-(4-hydroxy-4-phenylpiperidino)-1-propanol from rat forebrain membranes (described above). Affinity for the α1-adrengergic receptor is defined as the IC50 for displacement of specific binding of racemic [^3H]prazosin from rat brain membranes, measured as described by Greengrass and Bremner (Binding Characteristics of [3H]prazosin to Rat Brain α-Adrenergic Receptors, European Journal of Pharmacology, 55, 323-326, (1979)).
Forebrains of adult male Sprague Dawley rats are homogenized in 20 volumes of ice cold 50 mM Tris/HCl buffer (pH 7.7). The homogenate is centrifuged at 50,000×g for 10 minutes at 4° C. The pellet is resuspended and centrifuged under identical conditions and the final pellet is resuspended in 80 volumes of 50 mM Tris/HCl (pH 8.0) at 4° C.
For binding assays, compounds under study are added at various concentrations to 500 μg membrane protein in 1 ml of 50 mM Tris/HCl buffer, followed by [^3H]prazosin (Amersham, specific activity 33 Ci/mmol, 0.2 nM final concentration). Following incubation for 30 min at 25° C. in a shaking water bath, samples are filtered onto Whatman GFB glass fiber filters using a MB-48R Cell Harvester (Brandel Research and Development Laboratories, Gaithersburg Md.). Filters are washed three times for 10 s with ice cold Tris HCl buffer and the radioactivity trapped on the filter quantified by liquid scintillation spectroscopy. Nonspecific binding is determined in parallel incubations containing 100 nM prazosin. Specific binding is defined as total binding minus nonspecific binding.

[1] = target: T1, NR2B subunit containing NMDA receptor (Rattus norvegicus, UniProt P35439+Q00960); assay: Displacement of specific binding of racemic [3H](+)-(1S,2S)-1-(4-hydroxy-phenyl)-2-(4-hydroxy-4-phenylpiperidino)-1-propanol ([3H]CP-101,606) from rat forebrain membranes; conditions: ratio of the IC50s; greater than three is considered selective for NR2B over α1
T1 construct: (+)-(1S, 2S)-1-(4-hydroxy-phenyl)-2-(4-hydroxy-4-phenylpiperidino)-1-propanol from rat forebrain membranes; from tissue; host or cells: forebrain membranes of adult male CD rats
T1 sequence (Q00960 27-1482, other chains not shown): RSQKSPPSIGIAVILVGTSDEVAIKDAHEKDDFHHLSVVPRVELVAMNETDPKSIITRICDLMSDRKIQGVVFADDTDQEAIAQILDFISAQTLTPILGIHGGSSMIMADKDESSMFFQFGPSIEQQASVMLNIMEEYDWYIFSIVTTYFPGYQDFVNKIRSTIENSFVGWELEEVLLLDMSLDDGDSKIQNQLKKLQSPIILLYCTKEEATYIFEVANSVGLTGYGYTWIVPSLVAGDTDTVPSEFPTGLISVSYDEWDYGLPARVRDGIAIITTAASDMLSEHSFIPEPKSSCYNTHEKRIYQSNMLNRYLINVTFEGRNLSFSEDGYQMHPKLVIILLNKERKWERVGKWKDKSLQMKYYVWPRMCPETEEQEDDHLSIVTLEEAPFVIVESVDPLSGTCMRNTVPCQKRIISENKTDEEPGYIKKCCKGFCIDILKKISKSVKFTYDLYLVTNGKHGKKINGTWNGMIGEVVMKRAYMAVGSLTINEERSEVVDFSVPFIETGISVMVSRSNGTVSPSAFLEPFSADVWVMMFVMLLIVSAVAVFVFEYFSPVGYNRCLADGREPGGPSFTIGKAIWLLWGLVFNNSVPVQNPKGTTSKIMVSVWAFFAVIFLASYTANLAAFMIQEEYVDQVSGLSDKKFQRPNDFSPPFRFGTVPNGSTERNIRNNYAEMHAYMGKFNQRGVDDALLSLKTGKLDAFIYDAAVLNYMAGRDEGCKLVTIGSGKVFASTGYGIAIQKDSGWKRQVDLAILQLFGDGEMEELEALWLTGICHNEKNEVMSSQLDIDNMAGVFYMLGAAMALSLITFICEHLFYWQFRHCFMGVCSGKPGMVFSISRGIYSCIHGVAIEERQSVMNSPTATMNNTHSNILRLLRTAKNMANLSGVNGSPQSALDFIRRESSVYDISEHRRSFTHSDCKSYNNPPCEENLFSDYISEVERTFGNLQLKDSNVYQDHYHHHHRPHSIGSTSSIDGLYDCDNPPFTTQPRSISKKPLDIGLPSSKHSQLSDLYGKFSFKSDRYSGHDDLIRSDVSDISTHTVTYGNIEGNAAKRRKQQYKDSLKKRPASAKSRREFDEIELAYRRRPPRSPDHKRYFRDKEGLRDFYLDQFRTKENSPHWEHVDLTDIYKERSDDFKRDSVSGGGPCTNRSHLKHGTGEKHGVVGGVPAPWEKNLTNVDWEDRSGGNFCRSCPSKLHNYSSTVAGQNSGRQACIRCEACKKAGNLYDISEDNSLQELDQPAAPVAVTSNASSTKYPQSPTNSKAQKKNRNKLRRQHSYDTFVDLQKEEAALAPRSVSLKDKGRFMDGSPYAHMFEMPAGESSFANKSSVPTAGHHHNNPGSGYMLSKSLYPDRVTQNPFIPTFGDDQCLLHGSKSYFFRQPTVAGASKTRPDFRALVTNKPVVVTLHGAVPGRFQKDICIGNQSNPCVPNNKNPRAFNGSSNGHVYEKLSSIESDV
Description: This affinity is assessed in a radioligand binding assay as described later in this application.
This affinity is assessed in a radioligand binding assay as described below.
The binding of racemic [^3H] […] Forebrains of adult male CD rats are homogenized in 0.32M sucrose at 4° C. The crude nuclear pellet is removed by centrifugation at 1,000×g for 10 minutes, and the supernatant centrifuged at 17,000×g for 25 minutes. The resulting pellet is resuspended in 5 mM Tris acetate pH 7.4 at 4° C. for 10 minutes to lyse cellular particles and again centrifuged at 17,000×g. The resulting pellet is washed twice in Tris acetate, resuspended at 10 mg protein/ml and stored at −20° C. until use.
For binding assays, membranes are thawed, homogenized, and diluted to 0.5 mg protein/ml with 50 mM Tris HCl, pH 7.4. Compounds under study are added at various concentrations followed by racemic [^3H] […] Following incubation for 20 min at 30° C. in a shaking water bath, samples are filtered onto Whatman GFB glass fiber filters using a MB-48R Cell Harvester (Brandel Research and Development Laboratories, Gaithersburg Md.). Filters are washed for 10 s with ice cold Tris HCl buffer and the radioactivity trapped on the filter quantified by liquid scintillation spectroscopy. Nonspecific binding is determined in parallel incubations containing 100 μM racemic (+)-(1 S, 2S)-1-(4-hydroxy-phenyl)-2-(4-hydroxy-4-phenylpiperidino)-1-propanol. Specific binding is defined as total binding minus nonspecific binding.
Affinity for the NR^2B subunit containing NMDA receptor is measured as the IC50 for displacement of specific binding of racemic [^3H] […] Affinity for the α1-adrengergic receptor is defined as the IC50 for displacement of specific binding of racemic [^3H]prazosin from rat brain membranes, measured as described by Greengrass and Bremner (Binding Characteristics of [3H]prazosin to Rat Brain α-Adrenergic Receptors, European Journal of Pharmacology, 55, 323-326, (1979)).

melting point | SMILES | IC50 (α1-adrenergic receptor) | Ratio [^3H]Prazosin/[^3H] (+)-(1S, 2S)-1-(4-hydroxy-phenyl)-2-(4-hydroxy-4-phenylpiperidino)-1-propanol [1]
159 to 160 °C | Oc1ccc2c(c1)OCC(N1CCC(O)(c3ccc(F)cc3)CC1)[C@H]2O (stereo in doubt) |  | 
 | COc1cc([C@H](O)[C@H](C)N2CCC(O)(c3ccccc3)CC2)ccc1O [(1S, 2S)-1-(4-hydroxy-3-methoxyphenyl)-2-(4-hydroxy-4-phenylpiperidino)-1-propanol] | 8.1 µM | 86
 | Oc1ccc2c(c1)OC[C@@H](N1CCC(O)(c3ccc(F)cc3)CC1)[C@H]2O [(3R, 4S)-3-(4-(4-fluorophenyl)-4-hydroxypiperidin-1-yl)-chroman-4,7-diol] | > 10 µM | ≧555
 | C[C@@H]([C@@H](O)c1ccc(O)cc1)N1CCC(O)(c2ccccc2)CC1 [(+)-(1S, 2S)-1-(4-hydroxy-phenyl)-2-(4-hydroxy-4-phenylpiperidino)-1-propanol] | 19.5 µM | 
 | OC(CN1CCC(Cc2ccc(F)cc2)CC1)c1ccc(Cl)cc1 (centres unmarked) [Eliprodil, reference compound] | 0.98 ± 0.22 µM | 2.2
